{"source": "patent US20240425491A1", "about": "“HETEROARYL COMPOUNDS USEFUL IN THE TREATMENT OF COGNITIVE DISORDERS” (University College Cardiff Consultants Limited, priority 2021, published 2024)", "key": {"[1]": {"target": "T1, human α5β3γ2L GABAA receptors in HEK293 cells (Homo sapiens, UniProt P18507+P31644)", "T1 construct": "expressed in transfected cells", "T1 sequence (P31644 32-462)": "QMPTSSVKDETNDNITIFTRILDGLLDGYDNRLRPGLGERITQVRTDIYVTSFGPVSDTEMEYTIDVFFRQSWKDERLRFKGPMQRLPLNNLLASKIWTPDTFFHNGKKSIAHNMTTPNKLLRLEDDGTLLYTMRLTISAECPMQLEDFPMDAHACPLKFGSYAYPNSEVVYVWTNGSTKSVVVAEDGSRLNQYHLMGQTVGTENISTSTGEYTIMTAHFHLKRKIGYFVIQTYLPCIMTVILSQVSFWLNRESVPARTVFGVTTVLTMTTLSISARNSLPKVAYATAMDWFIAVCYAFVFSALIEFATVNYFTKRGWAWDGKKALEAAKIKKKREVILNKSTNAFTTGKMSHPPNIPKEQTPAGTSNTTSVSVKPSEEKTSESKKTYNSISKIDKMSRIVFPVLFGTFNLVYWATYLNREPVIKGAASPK", "T1 sequence (P28472 26-473 partner)": "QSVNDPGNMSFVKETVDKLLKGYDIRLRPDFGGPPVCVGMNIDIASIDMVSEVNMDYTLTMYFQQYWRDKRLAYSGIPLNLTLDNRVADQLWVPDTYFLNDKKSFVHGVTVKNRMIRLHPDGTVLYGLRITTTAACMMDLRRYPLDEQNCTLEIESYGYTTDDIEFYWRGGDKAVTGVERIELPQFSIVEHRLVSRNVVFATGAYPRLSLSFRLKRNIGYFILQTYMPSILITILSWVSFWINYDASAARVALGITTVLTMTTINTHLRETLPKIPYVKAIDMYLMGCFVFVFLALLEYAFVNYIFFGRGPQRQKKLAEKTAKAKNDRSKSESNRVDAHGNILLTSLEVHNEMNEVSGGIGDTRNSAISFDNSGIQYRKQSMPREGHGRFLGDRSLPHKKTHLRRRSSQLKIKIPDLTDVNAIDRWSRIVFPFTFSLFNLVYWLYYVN", "T1 sequence (P18507 40-475)": "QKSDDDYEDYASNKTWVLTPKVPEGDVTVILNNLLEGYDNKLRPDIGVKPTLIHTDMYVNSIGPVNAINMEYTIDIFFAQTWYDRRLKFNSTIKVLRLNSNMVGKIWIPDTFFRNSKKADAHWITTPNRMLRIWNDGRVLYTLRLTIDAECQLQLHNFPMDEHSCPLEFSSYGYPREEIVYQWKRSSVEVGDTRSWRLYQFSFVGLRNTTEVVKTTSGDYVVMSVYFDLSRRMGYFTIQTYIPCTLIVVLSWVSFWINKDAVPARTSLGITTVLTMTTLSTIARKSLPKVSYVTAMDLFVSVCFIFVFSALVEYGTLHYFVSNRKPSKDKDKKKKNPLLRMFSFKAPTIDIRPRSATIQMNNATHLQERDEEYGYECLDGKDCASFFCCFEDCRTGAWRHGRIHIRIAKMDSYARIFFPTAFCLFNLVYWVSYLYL", "assay": "In vitro electrophysiological recording assay (α5-GABAAR relative efficacy), SyncroPatch", "assay_type": "cell-based", "details": "Conc 0.1 μM; GABA EC10-20", "summary_of_the_method": "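HEK293 cells stably expressing the receptor, automated whole-cell patch clamp at −80 mV, room temperature (20-22° C). Compound pre-incubated 1-2 min, then co-applied with GABA EC10-20; % change in peak current vs GABA alone (leak-subtracted). Tested generally at ≥100× Ki and normalised to DMCM efficacy as relative efficacy.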"}, "[2]": {"target": "T2, human recombinant GABAAR containing α5β3γ2 subunits (benzodiazepine site) (Homo sapiens, UniProt P18507+P31644)", "T2 construct": "expressed in transfected cells; host or cells: mouse L(tk−) cells, dexamethasone-inducible vector pMSGneo", "T2 sequence (P31644 32-462)": "as the sequence (P31644 32-462) above", "T2 sequence (P28472 26-473 partner)": "as the sequence (P28472 26-473 partner) above", "T2 sequence (P18507 40-475)": "as the sequence (P18507 40-475) above", "assay": "In vitro radioligand binding assay (α5-GABAAR Ki)", "details": "inhibition of [3H]Ro15-1788 binding, membranes of L(tk−) cells expressing human α5β3γ2; read-out: α5-GABAAR Ki", "summary_of_the_method": "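Membranes from mouse L(tk^−) cells stably expressing human α5β3γ2 GABAAR incubated 1 h at 4° C with 4 nM [^3H]Ro15-1788 and test compound; nonspecific binding with 1 μM TP003. Filter-bound radioactivity counted; Ki from IC50 by Cheng-Prusoff using measured Kd.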"}, "[3]": {"system": "mouse hippocampal brain slices (LTP suppressed by etomidate)", "assay": "Electrophysiology in hippocampal slices - long term potentiation assay"}}, "data": [{"compound": "COc1nc(-n2ccnc2)ccc1NC(=O)c1c(-c2ccccc2)noc1C", "note": "[Example 1, N-(6-Imidazol-1-yl-2-methoxy-3-pyridyl)-5-methyl-3-phenyl-isoxazole-4-carboxamide]", "values": [{"measurement": "α5-GABAAR Relative Efficacy (to DMCM), SyncroPatch", "setting": "[1]", "result": "−1.11"}, {"measurement": "Ki", "setting": "[2]", "result": 2.9, "unit": "nM"}, {"measurement": "magnitude of LTP (fEPSP slope as % of control fEPSPs prior to 4-TBS vs time)", "setting": "[3]; 1 μM co-added with etomidate 3 μM, n=6, FIG. 2A", "result": "rescued"}, {"measurement": "fEPSP slope at 50-60 min post-delivery of the 4-TBS", "setting": "[3]; co-incubation with etomidate, one-way ANOVA, post-hoc Tukey, p<0.05, FIG. 2B", "result": "significantly increased fEPSP slope"}]}]}
